Laboratory results: article PMC12249905, “Substituted Triazole-3,5-Diamine Compounds as Novel Human Topoisomerase III Beta Inhibitors” (International Journal of Molecular Sciences, 2025)

Tests used:
[1] = Cell viability of human dermal fibroblasts (CellTiter-Blue); type: cell-based; settings: primary human dermal fibroblasts (HdFa), 100 µM (highest concentration), 24 h exposure, relative to untreated control
Protocol: Human dermal fibroblasts (HdFa; PCS-210-012™, ATCC, Manassas, VA, USA) were cultured in Dulbecco’s Modified Eagle Medium (DMEM; supplemented with GlutaMAX™ and sodium pyruvate; Gibco, Waltham, MA, USA), containing 10% fetal bovine serum (FBS; Gibco) and 1% penicillin-streptomycin (10,000 U/mL; Gibco). Cells were maintained in T75 tissue culture flasks (Thermo Scientific Nunc™, Roskilde, Denmark) under standard incubation conditions (37 °C, 5% CO2, humidified atmosphere). Upon reaching confluency, cells were harvested and seeded into black-walled, clear-bottom, 96-well plates at a density of 5000 cells/well in 100 µL of complete growth medium. Following overnight incubation, the cells reached approximately 80–90% confluence. […]
After 24 h of compound exposure, 20 µL of CellTiter-Blue® reagent (Promega, WI, USA) was added to each well. Plates were incubated for an additional 2 h at 37 °C, after which the fluorescence of the metabolized resorufin product was measured using a Synergy Multi-Mode Plate Reader (BioTek Instruments, Winooski, VT, USA) at an excitation wavelength of 560 nm and an emission wavelength of 590 nm. Cellular viability in response to the test compounds was expressed as a percentage relative to the untreated control group.(1) Cell viability (%)=Fluorescenceintensityoftreatedcells/Fluorescenceintensityofcontrolcells×[…]

[2] = target: T1, human TOP3B (Homo sapiens, UniProt O95985); assay: Assay of inhibition of human TOP3B relaxation activity (chloroquine gel electrophoresis, TDRD3 present); type: biochemical; settings: for IC50: DNA relaxation, 18 nM TOP3B and TDRD3, supercoiled pBAD/Thio plasmid, 37 °C 1 h; for Inhibition of the DNA relaxation activity of human TOP3B: tested at up to 200 µM
T1 construct: GST (N); 6xHis (C); purchased Genscript (custom production); host or cells: sf9 insect cells (TOP3B); E. coli Rosetta(DE3) (TDRD3, made in house)
T1 sequence (O95985 1-862): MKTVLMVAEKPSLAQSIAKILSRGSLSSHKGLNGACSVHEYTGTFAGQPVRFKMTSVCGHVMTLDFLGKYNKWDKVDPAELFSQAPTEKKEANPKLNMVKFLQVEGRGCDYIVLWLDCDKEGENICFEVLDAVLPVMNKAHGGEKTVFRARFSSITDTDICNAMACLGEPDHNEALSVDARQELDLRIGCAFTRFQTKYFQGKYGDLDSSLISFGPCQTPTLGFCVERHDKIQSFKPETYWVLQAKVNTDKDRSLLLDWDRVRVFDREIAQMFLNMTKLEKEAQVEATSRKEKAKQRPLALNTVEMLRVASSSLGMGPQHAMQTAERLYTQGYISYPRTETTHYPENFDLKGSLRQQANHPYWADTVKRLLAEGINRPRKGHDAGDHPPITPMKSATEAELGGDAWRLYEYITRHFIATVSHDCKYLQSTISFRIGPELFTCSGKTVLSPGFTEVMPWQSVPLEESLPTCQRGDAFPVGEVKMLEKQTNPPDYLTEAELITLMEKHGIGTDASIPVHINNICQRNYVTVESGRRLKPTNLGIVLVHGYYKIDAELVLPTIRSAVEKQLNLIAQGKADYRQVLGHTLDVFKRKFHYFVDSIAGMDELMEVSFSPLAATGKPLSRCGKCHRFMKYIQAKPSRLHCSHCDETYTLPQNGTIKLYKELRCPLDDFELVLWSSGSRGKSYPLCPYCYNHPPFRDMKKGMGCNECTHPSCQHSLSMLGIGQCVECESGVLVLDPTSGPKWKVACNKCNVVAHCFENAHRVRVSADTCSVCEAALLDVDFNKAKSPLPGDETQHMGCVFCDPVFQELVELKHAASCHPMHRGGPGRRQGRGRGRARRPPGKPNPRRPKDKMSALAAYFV
Source text: Human TOP3B protein was obtained through custom production by Genscript. The coding sequence of human TOP3B was custom synthesized by Genscript and cloned into vector pFastBacGST to generate the recombinant baculovirus expressing human TOP3B protein with the N-terminal GST tag and C-terminal 6xHis tag. Following expression in sf9 insect cells, the recombinant TOP3B protein was purified to >95% homogeneity by Genscript using GST column and superdex 200 16/600G chromatography. A buffer containing 20 mM of Tris-HCl (pH 7.5), 750 mM of KCl, 10% glycerol, 1 mM of EDTA, 0.05% NP-40, and 1mM of DTT was used for storage and dilution.
The presence of the TDRD3 protein enhances the relaxation activity of human TOP3B through the direct binding of the proposed TOP3B hinge region for gate opening and closing. The human TDRD3 coding sequence was amplified by PCR from the TDRD3 clone in pEGFP-C1 [45] using a forward primer of 5′-[…]-3′ and a reverse primer of 5′-[…]-3′. The amplified TDRD3 gene was joined with the backbone of the DHFR-His plasmid (from New England BioLab) using the NEB HiFi assembly kit with the forward primer 5′-[…]-3′ and the reverse primer 5′-[…]-3′ so that the TDRD3 gene replaced the DHFR gene. The his-tagged TDRD3 protein was expressed from the T7 promoter in E. coli Rosetta(DE3) cells and purified using the HisPur Ni-NTA spin column from Thermo Fisher according to the manufacturer’s protocol.
Inhibition of the relaxation activity of human TOP3B was carried out in a reaction buffer containing 20 mM of HEPES-KOH, with a pH of 7.5, 1 mM of DTT, 0.1 mg/mL of BSA, and 5 mM of MgCl2. TOP3B and TDRD3 were added at 18 nM to each reaction mix followed by 0.5 μL of DMSO or indicated concentrations of compounds, and lastly by the addition of 500 ng of supercoiled pBAD/Thio plasmid DNA (purified by CsCl gradient centrifugation) for a final reaction volume of 20 μL. After mixing by gentle vortex, the reaction mixtures were spun down and incubated at 37 °C for 1 h. The relaxation reactions were terminated by the addition of 1 μL of 10% SDS and 2 μL of 800 units/mL of proteinase K (New England Biolabs) and incubated at 45 °C for 30 min. Following the addition of 5 μL of stop solution (50 mM of EDTA, 50% glycerol, and 0.5% v/v bromophenol blue), the reaction products were analyzed in a 1% agarose gel with TAE (40 mM of Tris-acetate, pH 8.0, 2 mM of EDTA) buffer containing 5 μg/mL of chloroquine at 25 V (1 V/cm) for 18 h. Gels were washed with TAE buffer for 1 h and 50 mM of NaCl for 1 h to remove the chloroquine, and finally with deionized water for 30 min. Gels were stained for 2 h with 1 μg/mL of SYBR Gold solution (Thermo Fischer Scientific, Waltham, MA, USA). Gels were destained with deionized water for 15 min and photographed over UV light with the AlphaImager system. The amount of the relaxed DNA produced by TOP3B in each reaction was quantified using the AlphaImager software version 1.5.0 to calculate the percentage of inhibition versus the DMSO control.

[3] = target: T2, human TOP1 (Homo sapiens, UniProt P11387); assay: Assay of inhibition of human TOP1 relaxation activity (gel electrophoresis); type: biochemical; settings: DNA relaxation, 1 unit enzyme, supercoiled pBAD/Thio plasmid, 37 °C 30 min
T2 construct: made in house; host or cells: Saccharomyces cerevisiae strain EKY3
T2 sequence (P11387 1-765): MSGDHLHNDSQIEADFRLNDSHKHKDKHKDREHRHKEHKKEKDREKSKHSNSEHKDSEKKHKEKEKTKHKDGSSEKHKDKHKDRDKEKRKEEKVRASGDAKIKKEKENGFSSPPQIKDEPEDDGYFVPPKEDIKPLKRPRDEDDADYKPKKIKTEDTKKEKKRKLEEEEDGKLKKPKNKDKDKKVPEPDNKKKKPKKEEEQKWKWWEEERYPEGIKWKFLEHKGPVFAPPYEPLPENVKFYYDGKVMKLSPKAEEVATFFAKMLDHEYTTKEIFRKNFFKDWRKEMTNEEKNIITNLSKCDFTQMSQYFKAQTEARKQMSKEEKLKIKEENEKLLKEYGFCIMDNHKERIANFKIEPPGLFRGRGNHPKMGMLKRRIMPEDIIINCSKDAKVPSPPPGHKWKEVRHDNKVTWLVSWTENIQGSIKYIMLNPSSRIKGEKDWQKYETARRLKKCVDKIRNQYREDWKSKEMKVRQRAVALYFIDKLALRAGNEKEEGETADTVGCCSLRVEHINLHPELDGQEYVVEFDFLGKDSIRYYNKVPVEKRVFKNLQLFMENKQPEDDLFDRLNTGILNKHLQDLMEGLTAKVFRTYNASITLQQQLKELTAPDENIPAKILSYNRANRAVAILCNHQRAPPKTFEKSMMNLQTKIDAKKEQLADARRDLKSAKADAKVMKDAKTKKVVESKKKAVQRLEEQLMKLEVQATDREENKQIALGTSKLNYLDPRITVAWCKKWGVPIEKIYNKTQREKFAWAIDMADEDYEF
Protocol: Recombinant human TOP1 was expressed from clone pYES2-TOP1 transformed into Saccharomyces cerevisiae strain EKY3 [46]. Inhibition of TOP1 relaxation activity was assayed as described in a 20 µL reaction containing 200 ng of supercoiled pBAD/Thio plasmid DNA and 1 unit of enzyme in 10 mM of Tris-HCl, with a pH of 8.0, 1 mM of EDTA, 150 mM of NaCl, 0.1 mM of spermidine, 0.1 mg/mL of BSA, and 5% glycerol. The reactions were incubated at 37 °C for 30 min before the addition of 4 µL of stop solution (6% SDS, 0.6% (wv/v)) bromophenol blue and 40% glycerol. Gel electrophoresis for the separation of the supercoiled DNA substrate from the relaxed DNA was conducted in 1% agarose gel with TAE buffer for 20 h at 25 V. The DNA was stained with ethidium bromide for an hour and then soaked in water for 5 min. Gels were photographed over UV light with the AlphaImager system. The amount of the supercoiled DNA substrate remaining in each reaction was quantified using the AlphaImager software to calculate the percentage of inhibition versus the DMSO control.

Compound	Inhibition of the DNA relaxation activity of human TOP3B [2]	other results
CC(C)[C@H](N)C(=O)n1nc(Nc2ccccc2/C=C/C(N)=O)nc1N [2710-33-343]	–	viability at 24 h, 100 µM [1]: ~60%
CC(C)C[C@H](N)C(=O)n1nc(Nc2ccccc2/C=C/C(N)=O)nc1N [2710-34-357]	–	IC50 [2]: 34.5 µM; IC50 [3]: 31.9 µM
Nc1nc(Nc2ccc3c(c2)CC[C@@H](N2CCCC2)CC3)nn1-c1cc2c(nn1)-c1ccccc1CCC2 [Bemcentinib]	Inhibition was observed only for bemcentinib	IC50 [2]: 34.3 µM; Selectivity for inhibition of TOP3B versus TOP1 ([2]; comparison of IC50 values TOP3B vs TOP1): inhibits TOP3B with greater potency than TOP1; IC50 [3]: 75.8 µM
CN1CCN(C2CCN(C(=O)Nc3cc(Oc4ccc(NC(=O)C5(C(=O)Nc6ccc(F)cc6)CC5)c(F)c4)ccn3)CC2)CC1 [Golvatinib]	Inhibition was observed only for bemcentinib	–
Cc1cn(-c2cc(NC(=O)c3ccc(C)c(Nc4nccc(-c5cccnc5)n4)c3)cc(C(F)(F)F)c2)cn1 [Nilotinib]	Inhibition was observed only for bemcentinib	–
Cc1cn(-c2cc(NC(=O)c3ccc(C)c(Nc4nccc(-c5cnccn5)n4)c3)cc(C(F)(F)F)c2)cn1 [Radotinib]	Inhibition was observed only for bemcentinib	–
CNC(=O)c1cc(Oc2ccc(NC(=O)Nc3cc(C(C)(C)C)nn3-c3ccc4ncccc4c3)c(F)c2)ccn1 [Rebastinib]	Inhibition was observed only for bemcentinib	–
Cc1cc(Nc2ncnc3ccc(NC4=NC(C)(C)CO4)cc23)ccc1Oc1ccn2ncnc2c1 [Tucatinib]	Inhibition was observed only for bemcentinib	–
